Assays:
[1] = test system: MPTP-induced Parkinson's disease; test: MPTP-induced Parkinson's disease mouse model; type: in vivo, mice; conditions: for MPTP-induced increase in number of microglia (Iba1+ cells) in the substantia nigra and striatum / density of Th+ fibers in the striatum / number of dopaminergic neurons (Th+ cells) in the substantia nigra: 30 mg/kg oral for 8 days; for density of Th+ fibers in the striatum / number of dopaminergic neurons (Th+ cells) in the substantia nigra / pole test T-total / pole test T-turn: compared to the vehicle-treated group; for pole test T-total / pole test T-turn: Day 6 after MPTP, 30 mg/kg oral
Description: To evaluate the effect of compounds of Example 1 and Example 2 on MPTP (1-methyl-4-phenyl-1,2,3,6-tetrahydropyridine hydrochloride; Sigma-Aldrich)-induced Parkinson's disease, C57BL/6 male mice (9 weeks old) were randomly divided into three groups. • saline+vehicle • MPTP+vehicle • MPTP+compound of Example 1 or […] (30 mg/kg)
To induce Parkinson's disease, mice were intraperitoneally injected with MPTP (25 mg/kg) four times at 2-hour intervals, while control mice were treated with an equal volume of saline. The compounds of Example 1 or Example 2 were dissolved in a solvent consisting of 10% DMAC (dimethyl acetamide, Sigma-Aldrich), 10% Tween 80 (Sigma-Aldrich) and 80% saline (JW Pharmaceuticals). Mice were orally administered with 30 mg/kg of the compound of Example 1 or Example 2 starting 1 day prior to MPTP injection for 8 days.
Seven days after MPTP administration (one day after the last administration of the compound of Example 1 or Example 2), experimental animals were sacrificed by perfusion with saline (JW Pharmaceuticals) followed by 10% formalin (Sigma-Aldrich), and brain tissues were obtained. The tissues were cut into 30 μm thick slices using a cryostat (Leica) and stored in an anti-freezing solution (30% sucrose, 1% polyvinylpyrrolidone, and 30% ethylene glycol in 1×PBS) at −20° C.
Anti-tyrosine hydroxylase antibody (1:2000-4000, ABCAOM) was used to detect dopaminergic neurons and anti-Iba1 antibody (1:1000, Wako) was used to measure microglia. Biotinylated goat anti-rabbit antibody (VECTOR, BA-1000) was used as a secondary antibody and ABC solution (VECTOR, BA-1000) was used. The immunoreactive sections were then incubated with 3-3′ diaminobenzidine (DAB, Dako) to change the color to brown.
For the substantia nigra, six coronal sections, one every 150 μm, between −2.80 mm and −3.80 mm bregma were used, and for the striatum, three coronal sections between +0.98 mm and +0.50 mm bregma were collected. The coronal sections were stained with anti-tyrosine hydroxylase antibody or anti-Iba1 antibody and then analyzed by counting the number of stained cells or using ImagePro plus 7.0 software.
The mice were moved to a home cage where they were placed head up in the top of a 60 cm vertical pole with a diameter of 1 cm, and were then allowed to descend themselves and stay for about 15 seconds in the home cage.
The above procedure was repeated three times, all of which were videotaped, and the time for the mouse's head to turn completely downward (T-turn) and total time to descend to the floor (T-total) were analyzed.

[2] = test system: rodent brain tumor glioblast cell line 7080; test: Glioblastoma cell growth inhibition, cell line 7080; type: cell-based; conditions: all concentrations (0.5 μm, 1 μM, and 2 μM)
Description: (§1) Cell growth experiments were performed to determine the effect of the compounds according to The present disclosure on the growth of brain tumor glioblast cells. Specifically, the rodent brain tumor glioblast cell line 7080 and the human glioblast cell line U87 were treated with the compound of Example 2 according to The present disclosure to determine the cell growth inhibitory effects, and the results are shown in FIG. 18.

[3] = test system: BV2 cells; test: Microglia (BV2) migration, transwell; type: cell-based, mouse; conditions: LPS 1 μg/ml, 24 hours, compound 10 μM
Description: To determine the migration level of BV2 cells, 8 μm-sized transwells (35224, SPL) were used. 1×10^5 BV2 cells were seeded into the insertion transwells, and the lower wells were treated with the compound of Example 2 or Apocynin (NOX inhibitor) along with lipopolysaccharide (LPS, 1 μg/ml) as stimulus. After 24 hours of incubation, BV2 cells that migrated to the bottom of the insertion transwells were stained with crystal violet.

[4] = test system: Tg−APP/PS1 animal models; test: Tg-APPswe/PS1dE9 Alzheimer's animal model; type: in vivo, mice
Description: The Tg−APP/PS1 animal models were used to determine the effect of compounds of Examples according to The present disclosure on Alzheimer's disease. This animal models show amyloid plaque deposition as early as 6.5 months and severe cognitive impairment at 6 to 8 months. The Tg−APP/PS1 animal models were administered with vehicle or the Example compound (i.e., Example 2 was used) at 30 mg/kg or 10 mg/kg every other day from 6.5 to 8 months. All behavioral testing occurred between 7.5 and 8 months, and brain tissues for biopsy were obtained by perfusion after behavioral testing. To confirm amyloid beta plaques, the brain tissues obtained in the above part (1)_1) were incubated in 1% Thioflavin-S solution for 8 to 20 minutes and washed with ethanol and distilled water. The stained tissues were sectioned and the number of plaques or stained areas were quantified. To confirm the changes in astrocytes and microglia by administration of oxadiazole derivative compounds, immunostaining was performed using GFAP antibody, a marker for astrocytes, and Iba1 antibody, a marker for microglia. The novel object recognition (NOR) and novel location recognition (NLR) tests are behavioral assessments that evaluate memory based on the disparity in search time between a novel object or an object relocated to a new position compared to a familiar object. Each experimental animal was placed in a square box with two identical objects and allowed to familiarize for 10 minutes (familiarization #1). Ten minutes after the first familiarization was completed, the objects used in the first familiarization were returned to their original position and subjected to a second familiarization (familiarization #2). After 2 hours, only one of the objects used in familiarization was replaced with a novel object and placed in the same position and the exploration time of the familiar and novel objects (2 h NOR) was determined. After 15 minutes, the familiar object was repositioned, and the exploration time of both objects was checked (NLR). After 22 hours (24 hours after familiarization), the novel object and the familiar object were placed and the exploration time was determined (24 h NOR). water maze test is frequently used to assess memory functions such as memory formation, consolidation, and retrieval effects by assessing the time it takes for an experimental animal to find a platform beneath the water surface, relying on environmental cues. Therefore, the treatment effect on Alzheimer's disease was confirmed using the model used in the water maze test above. The passive avoidance test is a fear-motivated test mainly used to evaluate short-term or long-term memory in experimental animals. The passive avoidance test evaluates fear memory by utilizing the innate tendency of experimental animals to prefer dark areas and avoid bright areas, delivering an electric shock to the paw upon entry into a dark area, and measuring the time it takes for the animal to re-enter the dark area upon re-exposure to the same environment.

[5] = test system: human glioblast cell line U87; test: Glioblastoma cell growth inhibition, U87; type: cell-based; conditions: 2 μM, starting 4 days after treatment
Description: as §1

[6] = parietal cortex, piriform cortex, and hippocampus

`O=C(Nc1nnc(-c2cccc(Cl)c2)o1)c1cc(F)cc(C(F)(F)F)c1` [Example 1, N-(5-(3-chlorophenyl)-1,3,4-oxadiazol-2-yl)-3-fluoro-5-(trifluoromethyl)benzamide] was tested, and the “MPTP-induced increase in number of microglia (Iba1+ cells) in the substantia nigra and striatum” value [1] was “effectively reduced”, the “density of Th+ fibers in the striatum” value [1] was “higher” and the “number of dopaminergic neurons (Th+ cells) in the substantia nigra” value [1] was “higher”. The “pole test T-total” value [1] was “significant decrease” and the “pole test T-turn” value [1] was “decrease”.

For `O=C(Nc1nnc(-c2ccccc2)o1)c1ccc(F)c(C(F)(F)F)c1` [Example 2, 4-fluoro-N-(5-phenyl-1,3,4-oxadiazol-2-yl)-3-(trifluoromethyl)benzamide], the “glioma cell growth of glioblast cell line 7080” value [2] was “strongly inhibited”, the “LPS-induced increase in number of migrated BV2 cells” value [3] was “offset” and the “exploration time for novel objects than familiar objects (2 h NOR)” value ([4]; 30 mg/kg) was “significantly increase”. The “exploration time for novel objects than familiar objects (24 h NOR)” value ([4]; 30 mg/kg) was “remarkable increase”, the “exploration time for objects located in a novel location (NLR)” value ([4]; 30 mg/kg) was “significant increase” and the “amyloid plaque deposition (Thioflavin-S staining)” value ([4]; 30 mg/kg or 10 mg/kg every other day from 6.5 to 8 months) was “highly significant ameliorative effect”. The “water maze test, time required to locate platform” value ([4]; five consecutive days of training) was “memory acquisition ability equivalent to wild-type mice”, the “activation of astrocytes (GFAP immunostaining)” value [4, 6] was “effectively reduced” and the “activation of microglia (Iba1 immunostaining)” value [4, 6] was “effectively reduced”. The “passive avoidance test, time to enter the dark area” value ([4]; post-shock, 24 to 120 hours) was “fear memory retention comparable to that of wild-type animals”, the “MPTP-induced increase in number of microglia (Iba1+ cells) in the substantia nigra and striatum” value [1] was “effectively reduced” and the “density of Th+ fibers in the striatum” value [1] was “higher”. For the same molecule, the “number of dopaminergic neurons (Th+ cells) in the substantia nigra” value [1] was “higher”, the “pole test T-total” value [1] was “significant decrease” and the “pole test T-turn” value [1] was “decrease”. For the same molecule, the “cell growth of human glioblast cell line U87” value [5] was “cell growth inhibition was observed”.
